Patent publication US20230406883A1, “COMPOUNDS AND THEIR USE IN TREATMENT OF TACHYKININ RECEPTOR MEDIATED DISORDERS” (Embark Biotech ApS, priority 2020, published 2023)
Numbered stars: 1 amine (or outer) side, 2 acyl side, 3 side chain; on linkers, the order of the positions; unused ones are H or OH. Square brackets hold non-standard residues; d marks the D form. Side chains are listed from the residue outwards. Peptide text beside a SMILES is read from it. * marks the point of attachment. X1 = O=C(O)CCCCCCCCCCCCCCCCC(=O)N[C@@H](CCC(=O)NCCCNCCCCNCCCN*)C(=O)O; C18 diacid = O=C(O)CCCCCCCCCCCCCCCCC(=O)*; γGlu = O=C(O)[C@H](CCC(=O)[*:2])N[*:1]; εLys = N[C@@H](CCCCN[*:1])C(=O)[*:2]; NMeL = CN[C@@H](CC(C)C)C(=O)O; Suc = O=C(CCC(=O)[*:2])[*:1]; Nle = CCCC[C@H](N)C(=O)O

What was measured:
[1] = in vivo; parameters: species or system mice; details: mouse
Protocol: Pharmacokinetics: To evaluate the in vivo half-life of individual peptide analogues we used wild type lean mice at around 10 weeks of age injected once with a peptide analogue. For each sample time point 3-4 mice were used and blood was drawn from the submandibular vein at indicated time points following injection. Prior to injection mice were given ad libitum access to standard chow diet. Mice were subcutaneously injected with 0.5 mg/kg peptide analogue in a volume of 2 ml/kg. The amount of peptide analogue and metabolite(s) present in blood samples were measured by TF-LC-MS and MetID-LC-MS, respectively. Sample preparation: One volume of plasma is precipitated with three volumes of ethanol (with internal standard). The mixture is centrifuged at 13000 g for 20 min. One volume of supernatant is diluted with two volumes of Milli-Q water (1% formic acid). Calibration curve: peptide analogue was spiked into blank mouse plasma. Range: 0.5 to 2000 nM (linear 1/x2).

[2] = Energy expenditure screening by indirect calorimetry in diet-induced obese mice; format: in vivo; details: DIO mice, 0.5 mg/kg s.c., increase over vehicle
Protocol: Indirect calorimetry was used to evaluate the ability of individual peptide analogues to dose-dependently increase energy expenditure (EE) we used metabolic cages and indirect calorimetry measured by the Promethion system. To this end, oxygen consumption was used as a surrogate measure for EE. Substrate preference (fat or carbohydrate) was evaluated using the respiratory exchange ratio (RER). In parallel, behavioral information such as walking distance and water and food intake were recorded.
Prior to experimentation, DIO mice were transferred to habituation cages for at least 10 days (5 days outside and at least 5 days in the Sable Systems gas analyzer module) to acclimatize. For all in vivo compound tests for EE evaluation, mice received subcutaneous injections between 2 and 4 pm.
Energy expenditure screening: After habituation, mice were subcutaneously injected with 0.5 mg/kg peptide analogue in a volume of 2 ml/kg. Mice were injected q.a.d. (quaque altera die) and received a total of two injections. EE was evaluated and increase over vehicle was calculated as percent of mean oxygen consumption over a 30-hour period after injection. Prior to injection peptide analogues were dissolved to 0.25 mg/ml in in vivo buffer.

Row | Plasma exposure [26 h] [1] | level at time molar at 2 h ([1]; sc, 0.5 mg/kg) [nM] | Plasma exposure [2 h] [1] [nM] | SMILES | Energy expenditure (percent of vehicle; based on 30 h average vO2) [2]
1 | BLLQ | 237 |  | CCCC[C@H](NC(=O)[C@H](CC(C)C)N(C)C(=O)CNC(=O)[C@@H](NC(=O)[C@H](Cc1ccc(O)cc1)NC(=O)[C@H](CCCCN)NC(=O)[C@H](CC(=O)O)NC(=O)CCC(=O)NCCCNCCCCNCCCNC(=O)CC[C@H](NC(=O)CCCCCCCCCCCCCCCCC(=O)O)C(=O)O)C(C)C)C(N)=O [compound 318, *Asp;Lys;Tyr;Val;Gly;NmLeu;Nle;NH2] ({X1-Suc}-DKYVG[NMeL][Nle]-NH2) | 0% of vehicle
2 | 763 nM |  | 2266 | CCCC[C@H](NC(=O)[C@H](CC(C)C)N(C)C(=O)CNC(=O)[C@@H](NC(=O)[C@H](Cc1ccc(O)cc1)NC(=O)[C@H](CCCCN)NC(=O)[C@H](CC(=O)O)NC(=O)[C@@H](N)CCCCNC(=O)[C@@H](N)CCCCNC(=O)CC[C@H](NC(=O)CCCCCCCCCCCCCCCCC(=O)O)C(=O)O)C(C)C)C(N)=O [compound 321, *Asp;Lys;Tyr;Val;Gly;NmLeu;Nle;NH2] (H-K([εLys-γGlu-C18 diacid])DKYVG[NMeL][Nle]-NH2) | 5% of vehicle
